{"source": "patent US11179722B2", "about": "“Microfluidic method for handling microdrops” (ECOLE POLYTECHNIQUE, priority 2016, dated 2021)", "system": "rat hepatoma, H4IIEC3 cells", "format": "cell-based", "description": "An experiment was conducted to determine, in a single microfluidic system, the concentration beyond which a medicinal product (acetaminophen) becomes toxic to liver cells (rat hepatoma, H4IIEC3 cells).\nThe microfluidic chamber used containing 252 identical traps on 2 cm^2 in FIGS. 5A and 5B.\nThe first microdrops 20 of agarose that is liquid at 37° C. (ultra-low gelling), at 0.9 wt % diluted in culture medium containing H4IIEC3 cells, were trapped in the first trapping zones 15, the second trapping zone 18 remaining free. The first microdrops 20 were then cultured for one day to allow the cells to adhere to one another to form a spheroid by first microdrops 20. […]\nBy taking a fluorescence image before fusion, the different levels of fluorescence that are correlated with the concentration of medicinal product in the second microdrops 25 could be identified. […]\nThe chamber was perfused with HFE-7500 (fluorinated oil) containing 1H,1H,2H,2H-perfluorooctan-1-ol at a concentration of 20 vol % in order to fuse the microdrops in contact. […] By taking an image of the final matrix, the spheroids whose viability was affected most could be determined. […] Thus, correlating the result for viability and the concentration of acetaminophen in the second microdrops, it could be determined that the range of toxicity of acetaminophen on these hepatic cells is between 10 and 30 mmol/L for a static exposure of 1 day."}
{"smiles": "CC(=O)Nc1ccc(O)cc1", "note": "[acetaminophen]", "values": [{"measurement": "cell survival as a function of acetaminophen concentration", "value": "the higher the concentration of acetaminophen, the fewer cells survive"}, {"measurement": "range of toxicity of acetaminophen on these hepatic cells", "setting": "rat, 1 day", "value": "10 and 30"}]}
